{"source": "patent US8808692B2", "about": "“Compositions comprising immunoreactive reagents and saponins, and methods of use thereof” (CSL Limited, priority 2001, dated 2014)", "key": {"[1]": {"details": "cited from earlier work; for level of antibody response induced: mice, antigens bovine serum albumin and cytochrome b5; for IgG2a response to cytochrome b5: saponin doses of 20 μg"}, "[2]": {"tested_on": "target cells (E.G7-OVA or MO4)", "experiment": "Enhancement of antibody mediated lysis in vitro (51Cr-labeled target cells)", "type": "cell-based, mice", "details": "splenocytes incubated with 1 to 10 ug/ml QS-21 for 24 to 72 hours; monoclonal antibody to SIINFEKL/Class I MHC 1 to 10 ug/ml", "procedure": "Murine splenocytes (effector cells) are generated from the spleens of naive 6-8week old mice. These effector cells are incubated with 1 to 10 ug/ml of QS-21 or appropriate amount of another immunomodulatory saponin for 24 to 72 hours. At the end of the incubation period, target cells (E.G7-OVA or MO4) are loaded with 51 Cr. Effector cells and labeled target cells are incubated at defined effector:target ratios in the presence and absence of monoclonal antibody to SIINFEKL (SEQ ID NO: 1)/Class I MHC (1 to 10 ug/ml) at […] for 30 to 60minutes. The lysis in the presence of QS-21 and monoclonal is compared to controls without QS-21, without monoclonal, or both."}, "[3]": {"tested_on": "MO4 tumor or EG7-OVA tumor", "experiment": "Tumor challenge model", "type": "in vivo, C57B1/6 mice", "details": "QS-21 (10-20 ug) with monoclonal antibody vs monoclonal antibody alone; 30 to 60 day period", "procedure": "C57B1/6 mice are inoculated by s.c. route in the flank with MO4 tumor (1 ×10^5) or EG7-OVA tumor. At 24 to 48 hours after inoculation, mice are injected by IP route with a monoclonal antibody to SIINFEKL (SEQ ID NO: 1)/Class I MHC , or by local SC route in the presence or absence of QS-21 (10 -20 ug). The antitumor effect of the QS-21/monoclonal antibody treatment is compared to that of monoclonal antibody treatment by monitoring the growth of the tumors over a 30 to 60 day period (measurement with calipers). Survival was determined, and significance with respect to time to death was assessed using Cox regression analysis. Mice were also observed daily for signs of toxicity including level of activity, ruffled fur, diarrhea, and general appearance. […] Models and methods for evaluation of the effects of saponins and antibodies, or other immunoreactive reagents are known in the art. (Wooldridge et al., Blood, 1997, 89 (8): 2994-2998, incorporated by reference herein in its entirety)."}, "[4]": {"tested_on": "S. pneumonia or S. aureus", "experiment": "Opsonophagocytosis assay with HL-60 effector cells", "type": "cell-based", "details": "HL-60 effector cells incubated with QS-21, at a given antibody titer"}, "[5]": {"tested_on": "Fc α R, Fc gamma R1, Fc gamma RII or Fc gamma RIII", "experiment": "Upregulation of Fc receptors (FACScan)", "type": "cell-based", "details": "QS-21 for example 1-10 ug/ml", "procedure": "Monocytes, natural killer cells, or polymorphonuclear cells are incubated in the presence or absence of QS-21 (for example 1-10 ug/ml). The trypsinized cells are incubated at 4° C. for 60 min with monoclonal antibodies specific to Fc α R, Fc gamma R1, Fc gamma RII or Fc gamma RIII. The cells are then incubated with an anti-mouse IgG FITC probe, washed, fixed in paraformaldehyde, and analyzed by FACScan."}, "macrophage cells": {"tested_on": "macrophage cells", "experiment": "Cytokine production in macrophage cells", "type": "cell-based"}, "[6]": {"tested_on": "bone marrow derived dendritic cells", "experiment": "Cytokine production in bone marrow derived dendritic cells", "type": "cell-based"}, "[7]": {"details": "melanoma patients; cited from earlier work"}, "[8]": {"details": "mouse, in vivo; cited from earlier work"}}}
{"substance": "QS-17", "values": [{"measurement": "level of antibody response induced", "setting": "[1]", "result": "comparable to other commonly used adjuvants"}, {"measurement": "IgG2a response to cytochrome b5", "setting": "[1]", "result": "stimulate IgG2a response"}]}
{"substance": "QS-18", "values": [{"measurement": "level of antibody response induced", "setting": "[1]", "result": "comparable to other commonly used adjuvants"}, {"measurement": "IgG2a response to cytochrome b5", "setting": "[1]", "result": "stimulate IgG2a response"}]}
{"substance": "QS-21", "values": [{"measurement": "lysis due to QS-21/monoclonal over monoclonal alone", "setting": "[2]", "result": "enhanced lysis"}, {"measurement": "tumor progression", "setting": "[3]", "result": "delay in tumor progression"}, {"measurement": "opsonization of bacteria", "setting": "[4]", "result": "Improved opsonization"}, {"measurement": "Fc receptors on monocytes, natural killer cells, or polymorphonuclear cells", "setting": "[5]", "result": "Upregulation"}, {"measurement": "IL-6", "setting": "macrophage cells", "result": "upregulation"}, {"measurement": "MIP-1-alpha", "setting": "macrophage cells", "result": "upregulation"}, {"measurement": "TNF-alpha", "setting": "macrophage cells", "result": "upregulation"}, {"measurement": "production of II-12", "setting": "[6]", "result": "decrease the production"}, {"measurement": "production of IL-1", "setting": "[6]", "result": "increase production"}, {"measurement": "production of MIP-1-alpha", "setting": "[6]", "result": "increase production"}, {"measurement": "production of MIP-1-beta", "setting": "[6]", "result": "decrease the production"}, {"measurement": "level of antibody response induced", "setting": "[1]", "result": "comparable to other commonly used adjuvants"}, {"measurement": "IgG2a response to cytochrome b5", "setting": "[1]", "result": "stimulate IgG2a response"}, {"measurement": "serological response to MELIMMUNE-1", "setting": "[7]", "result": "significantly increased"}, {"measurement": "toxicity in mice", "setting": "[8]", "result": "least toxic"}]}
